Tests used:
C57BL/6J mice [1] = experiment: Barnes maze test, old mice; type: in vivo, mouse; conditions: old mice with exercise and surgery; intraperitoneal valeric acid once a week vs normal saline
Text: After one-week acclimation, old mice (18-month old male C57BL/6J mice) weighing 30-36 g were used in three studies. In the first experiment, old mice were randomly assigned to: 1) control group, 2) exercise group in which mice had 4-week exercise at 35-40% maximal capacity, 3) surgery group, and 4) Exe+Sur group in which mice had 4-week exercise at 35-40% maximal capacity before surgery. The animals were used for learning and memory tests starting 4 days after the surgery (n=12) or their brains were harvested for biochemical assays at 48 h after the surgery (n=10 or 12), for immunofluorescent staining at 48 h and 19 days after the surgery (n=6), and for Golgi staining at 19 days after the surgery (n=8). Blood and feces from mice of the 4 groups were harvested for SCFA measurement at 7 days after the surgery (n=7) and for 16S analyses at 3 and 7 days after the surgery (n=8) or at the end of 4-week exercise protocol or at the corresponding time in the first 2 groups (n=16). Mice for tissue harvesting were different cohorts that were used for learning and memory tests. In second experiment, old mice were randomly assigned to: 1) Trans-Old Control+Sur group, and 2) Trans-Old Exe+Sur group. […] Learning and memory were evaluated from 4 days after surgery (n=10). […] The latency to enter the target box during each trial was recorded by an ANY-Maze video tracking system (SD Instruments).

C57BL/6J mice [2] = experiment: Barnes maze test, young adult mice; type: in vivo, mouse
C3 = C3 in the hippocampus by ELISA; type: in vivo, mouse
Description: IL-1β, IL-6, C3 and GDNF in the hippocampus were detected by using ELISA kits. For testing the IL-1β, IL-6 and GDNF, brain tissues were homogenized on ice in the RIPA buffer containing 25 mM Tris-HCl with pH 7.6, 150 mM NaCl, 1% sodium deoxycholate, 0.1% SDS and a protease inhibitor cocktail containing 10 mg/ml aproteinin, 5 mg/ml peptastin, 5 mg/ml leupetin and 1 mM phenylmethane sulfonylfluoride. For C3 testing, brain tissues were homogenized on ice in the PTR buffer (supplied in the kit). The supernatant was collected for ELISA detection after the homogenate was centrifuged at 13,000 g for 20 min at 4° C. and the protein concentration was determined by the BCA protein assay (Bio-Rad, Hemel Hempstead, Herts, UK). IL-1β, IL-6, C3 and GDNF in supernatant of brain were detected according to the manufacturer's instruction for ELISA, and the amount of them in each sample in the brain was normalized by its total protein content and was expressed as pg/mg protein.

[3] = references [27, 32]; cited from earlier work
[4] = system: dendritic branches and spines of hippocampal neurons; experiment: Golgi staining, dendritic arborization; type: in vivo, mouse; conditions: young adult mice with exercise and surgery; intraperitoneal valeric acid
Description: Golgi staining was performed using FD Rapid GolgiStain™ Kit. Nineteen days after surgery, brains of 6 mice in each group were immersed in the impregnation solution (solutions A and B: 1:1) for 2 weeks and then transferred to solution C for 3 days. Coronal brain sections at a thickness of 100 μm and around-2.7 mm from bregma were cut on a vibratome (Microslicer® 10110, Ted Pella, Inc. California, USA). As described before, more than 10 well individualized neurons in the dentate gyrus (DG) region of the hippocampus were randomly selected from each mouse, and sequential optical multiple-layers scanning images were taken at an interval 2.0 μm along the z-axis (3DHISTECH, Pannoramic MIDI, Hungary) with 20× objective. The multiple-layer scanning files were superposed to become one clear scanning file that can be viewed with Caseviewer (3DHISTECH, Hungary) on a computer. The total branch number and dendritic length were measured by Fiji software (Fiji-win64, NIH, USA). The complexity of total dendritic trees (intersections) was estimated using Sholl analysis. For spine density measurement, 5 neurons were selected from each animal. […] The spine numbers in 40 μm segments were counted by an observer who was blind to group assignment. The results were expressed as the number of spines/10 μm segments. […]

With `CCCCC(=O)O` [valeric acid] as the molecule, how does the “performance in Barnes maze” value (C57BL/6J mice [1]) read?
The value was “impaired the performance”.

What about the “performance in the Barnes maze” value (C57BL/6J mice [2]; 13-week old mice without surgery, intracerebroventricular 4 mg/kg once daily for 4 days (1/50 dose of intraperitoneal injection)) of the same molecule?
The value was “did not affect the performance”.

And the “time to identify target box in the Barnes maze test” value (C57BL/6J mice [2]; young adult mice with exercise and surgery, valeric acid 200 mg/kg intraperitoneal once a week vs normal saline)?
Its value is “reversed the effects of exercise”.

What about the “C3 in the brain (hippocampus)” value (C3; 9-week old control mice, intraperitoneal valeric acid vs normal saline) of the same molecule?
The value was “increased”.

And the “exercise-induced reduction of C3 in the hippocampus” value (C3; young adult mice with exercise and surgery, intraperitoneal valeric acid)?
The value was “this reduction was blocked”.

What about the “crossing of blood-brain barrier” value [3] of the same molecule?
The value was “can cross blood-brain barrier”.

And the “exercise attenuation of the decrease of intersections among dendritic branches” value [4]?
Its value is “this attenuation was blocked”.

What about the “exercise attenuation of the decrease of spine density in the hippocampus” value [4] of the same molecule?
Its value is “this attenuation was blocked”.

From patent publication US20250319139A1, “METHODS FOR TREATING NEUROINFLAMMATION” (University of Virginia Patent Foundation, priority 2021, published 2025)
